In US5610319A, “Compound useful as antiproliferative agents and GARFT inhibitors” (Agouron Pharmaceuticals, Inc., priority 1995, dated 1997):

How the values were obtained:
GARFT = conditions: cited from earlier work
[1] = tested on: C3H/BA mammary adenocarcinoma; assay: In vivo antitumor activity, C3H/BA mammary adenocarcinoma; parameters: species or system C3H/He female mice; conditions: intraperitoneal, once daily for nine days, tumor mass day 14
Procedure: (§1) On day zero, 2 mm^2 trocar fragments of C3H/BA mammary adenocarcinoma were implanted subcutaneously in the axillary region into groups of six C3H/He female mice. Starting on day 1, the test compound was administered intraperitoneally in 40% Encapsin given once daily for nine days. Control animals received identical treatment without test compound. The percentage of inhibition was calculated by comparing the mass of the control tumors (receiving diluent only) on day 14 to those of animals receiving test compound.

6C3HED lymphosarcoma = assay: In vivo antitumor activity, 6C3HED lymphosarcoma; parameters: species or system C3H/He female mice; conditions: intraperitoneal, once daily for nine days; for % Inhibition: tumor mass day 11
Procedure: as §1, with “6C3HED lymphosarcoma” for “C3H/BA mammary adenocarcinoma”, “percentage” for “percentage of”, “inhibition given in Table 5 below” for “inhibition”, “11” for “14”

L1210 = assay: In vitro growth inhibition, L1210, MTT, Example 2; type: cell-based; conditions: Mus musculus, Continuous (72-hour) exposure, mean IC50, read-out: IC50 Cell Culture L1210
Procedure: All cultures were maintained at 37° C., 5% air-CO2 in a humidified incubator.
Stock solutions of the inhibitors were prepared in 10 mM sodium bicarbonate in water and stored in 1 ml aliquots at -20° C. for cell culture experiments. Cell growth inhibition was measured by a modification of the method of Mosmann, J. Immunol. Methods 65 (1983), 55-63.
Mid-log phase cells of each cell line were diluted to 18,500 cells/ml in fresh RPMI growth medium (Mediatech, Washington, DC) supplemented with dialyzed fetal calf serum (Hyclone Laboratories Inc., Logan, Utah) and then aliquotted into columns 2 through 12 of 96-well microtiter plates. Column 1 was filled with the same volume ([…]) of fresh medium, without cells, for use as a blank. The plates were then placed in a 37° C., 5% air-CO2 incubator. After 1 to 4 hours, plates were removed from the incubator followed by addition of Compound (21) at 10×final concentration, […] in binary dilutions, to columns 12 to 4. […] The extent of metabolized MTT was measured spectrophotometrically at 540 nm on a Molecular Devices Vmax™ kinetic microplate reader. The concentration of drug required to reduce cell growth by 50% as measured by MTT metabolism was determined by interpolation between the O.D. (minus blank) immediately above and below 50% of control O.D. (minus blank). […]

SMILES | GARFT inhibition (GARFT) | % Inhibition ([1]; 5 mg/kg) | % Inhibition ([1]; 10 mg/kg) | % Inhibition ([1]; 20 mg/kg) | % Inhibition (6C3HED lymphosarcoma; 12.5 mg/kg) | % Inhibition (6C3HED lymphosarcoma; 25 mg/kg) | % Inhibition (given as toxic) (6C3HED lymphosarcoma; 50 mg/kg, day 11) | IC50 (L1210)
Nc1nc2c(c(=O)[nH]1)CC(CCc1ccc(C(=O)N[C@@H](CCC(=O)O)C(=O)O)cc1)CN2 (some centres unmarked) [5,10-dideazatetrahydrofolic acid] | specific tight binding inhibitor of GARFT | – | – | – | – | – | – | –
Nc1nc2c(c(=O)[nH]1)SC(CCc1ccc(C(=O)N[C@@H](CCC(=O)O)C(=O)O)s1)CN2 (stereo partly drawn) [Compound 21, 4-[2-(2-Amino-4-oxo-4,6,7,8-tetrahydro-3H-pyrimido[5,4-6][1,4]thiazin-6-yl)-ethyl]-2,5-thienoylamino-L-glutamic acid] | – | 16% | 84% | 100% | 100% | 100% | toxic | 16 nM
